In brackets after ≈: the same amount, converted by molar mass.
Conditions: buffer; pH 7.4; 200.0 µM

SMILES	solubility kinetic [µg/mL]
Cc1ccc2nc(-c3cc(-c4ccccc4)no3)cn2c1	0.3 (≈ 1.09 µM)
CCOC(=O)C1CCN(C(=O)COc2cccc3ccccc23)CC1	43.2 (≈ 127 µM)
O=c1c2ccccc2nc2oc3ccccc3n12	1.1 (≈ 4.66 µM)
O=C(CCN1C(=O)c2ccccc2S1(=O)=O)Nc1ccccc1F	> 52.3
Cc1c(C(=O)N2CCC(C)CC2)cccc1[N+](=O)[O-]	> 39.3
O=C(CN1CCc2ccccc2C1)Nc1ccc(F)cc1	39.2 (≈ 138 µM)
Cc1ccc(Nc2nc(N)nc(CCl)n2)c(C)c1	> 39.6
O=C(NC(=O)c1ccccc1)Nc1ccccn1	9.5 (≈ 39.4 µM)
O=C(CNC(=O)c1cccc(F)c1)NC1CC1	> 35.4
c1cc2c(cc1CN1CCNCC1)OCO2	31.8 (≈ 144 µM)
CCN(CC)C(=O)C(Oc1ccc(C)nc1[N+](=O)[O-])c1ccccc1 (stereo not given)	48.6 (≈ 142 µM)
O=C(Nc1ccccc1)C1CC2CCC1C2 (stereo not given)	31.8 (≈ 148 µM)
CCOC(=O)c1c(NC(=O)C2CC2)sc2c1CC(C)(C)OC2	< 0.7
CCCCNC(=O)N1CCN(c2ccnc3cc(Cl)ccc23)CC1	> 52
CCCCN=C1CC(C)(C)CC(=O)/C1=C(/O)CCC	> 39.8
Cn1cc(C(=O)C(=O)N2CCCC2)c2ccccc21	> 38.4
O=C(COc1ccc(Cl)cc1)N1CCCCCCC1	31.8 (≈ 113 µM)
O=[N+]([O-])c1ccc(CN2CCCCCC2)cc1	> 35.1
N#Cc1c(N)n(-c2ccc(C(=O)O)cc2)c2nc3ccccc3nc12	28.5 (≈ 86.5 µM)
Cc1ccc(C)c(NC(=O)C2C3C=CC(O3)C2C(=O)O)c1 (stereo not given)	> 43.1

SMILES	solubility kinetic [µg/mL]
CCOc1ccc(NC(=O)c2nc(SCC)ncc2Cl)cc1	< 0.2
CCCNC(=O)N1CCC(c2ccc3c(c2)OCO3)CC1	38.8 (≈ 134 µM)
CCOc1cc(C=O)ccc1OCC(=O)N1CCCC1	> 41.6
O=C(COC(=O)Cc1cccc(C(F)(F)F)c1)NC(=O)NC1CCCC1	32.1 (≈ 86.2 µM)
O=C(CCSCc1ccccc1F)NCc1cccnc1	> 45.7
CCCCN(C(=O)COC(=O)c1ccc(C)s1)c1c(N)n(CCC)c(=O)[nH]c1=O	17.9 (≈ 42.4 µM)
CC(C)(O)CNC(=O)Nc1ccc(Cl)c(Cl)c1	24.6 (≈ 88.8 µM)
CCOc1ccc(NC(=O)COc2ccc(S(=O)(=O)N3CCOCC3)cc2)cc1	2.9 (≈ 6.9 µM)
Nc1nc2ccc(Cc3ccncc3)cc2s1	> 36.2
COc1cc(C(=O)Cc2nc3ccccc3n2C)cc(OC)c1OC	> 51.1
CCN1C(=O)CC(N2CCN(c3cccc(OC)c3)CC2)C1=O (stereo not given)	> 47.6
O=S(=O)(Nc1ccon1)c1ccc(Br)cc1	32.2 (≈ 106 µM)
Cc1cc(=O)oc2cc(NC(=O)c3cccc(S(C)(=O)=O)c3)ccc12	3.5 (≈ 9.79 µM)
COc1cccc(C(=O)NCCNC(=O)c2cnccn2)c1	30.9 (≈ 103 µM)
Cc1ccc(OCC(=O)Nc2ccc(S(=O)(=O)N3CCCC3)cc2)cc1	0.5 (≈ 1.34 µM)
Cc1cc2oc(=O)cc(CN3CCC(C)CC3)c2cc1C	4.1 (≈ 14.4 µM)
CC(C)CC(=O)Nc1sc2c(c1C(=O)O)CCCCC2	42 (≈ 142 µM)
C/C(=C/c1ccccc1)C(=O)N1CCN(c2ccccc2)CC1	37.1 (≈ 121 µM)
COc1ccc(S(=O)(=O)NC2CCCC2)cc1Cl	> 43.5
CCn1c(/N=C/c2ccccc2O)nc2ccccc21	36.9 (≈ 139 µM)

SMILES	solubility kinetic [µg/mL]
Cc1cc(SCC(=O)NC2CCCC2)nc2ccccc12	8.8 (≈ 29.3 µM)
N#Cc1ccc(-c2ccc(OCC3CNC(=O)O3)cc2)cc1 (stereo not given)	11.3 (≈ 38.4 µM)
C=CCNC(=O)C(C)N1c2cccc3cccc(c23)S1(=O)=O (stereo not given)	> 47.5
CC(=O)Nc1ccc(Nc2ncnc3ccccc23)cc1	6.5 (≈ 23.4 µM)
Cc1cc(=O)oc2cc(NC(=O)c3cc(F)ccc3F)ccc12	2.1 (≈ 6.66 µM)
CNC(=O)c1cc(OCC(F)(F)F)ccc1OCC(F)(F)F	49.6 (≈ 150 µM)
O=[N+]([O-])/C(=C\Nc1ccc(F)cc1F)S(=O)(=O)c1ccccc1	> 51
COc1ccc(S(=O)(=O)N(C)C(C)CCc2ccco2)cc1 (stereo not given)	35 (≈ 108 µM)
CC1(C)C2CCC1(C)C(OC(=O)CNc1ccccc1)C2 (stereo not given)	4.2 (≈ 14.6 µM)
O=C(CCc1ccc(S(=O)(=O)N2CCOCC2)cc1)OCC(=O)c1ccc(Br)cc1	6.7 (≈ 13.5 µM)
CN(C(=O)CSc1nc2ccccc2c(=O)n1-c1ccc(F)cc1F)C1CCS(=O)(=O)C1 (stereo not given)	> 71.9
CC(=O)c1ccc(NC(=S)N2CCC(Cc3ccccc3)CC2)cc1	2.8 (≈ 7.94 µM)
Cc1cc(C)c(C)c(OCC(=O)O/N=C(\N)c2cccnc2)c1	2.5 (≈ 7.98 µM)
CC1(C)CC(=O)C=C(NCc2cccc(C(F)(F)F)c2)C1	> 44.6
O=C(O)c1ccc(Cn2ccc3ccccc32)o1	> 36.2
CCS(=O)(=O)N1CCN(c2ccnc3cc(Cl)ccc23)CC1	> 51
OCc1ccnc2oc3ccccc3c12	28.8 (≈ 145 µM)
CCOc1ccc(C(=O)N(CN2CCCC2=O)c2cccc(Cl)c2)cc1	> 55.9
CSc1nc(C(C)C)ccc1CNC(=O)CC(C)c1ccccc1 (stereo not given)	1.3 (≈ 3.8 µM)
CCC1CO/C(=C(\C(=C(Cl)Cl)N2CCOCC2)[N+](=O)[O-])N1 (stereo not given)	> 50.7

— PubChem BioAssay AID1996
